Source: patent publication US8633231B2, “Substituted imidazolones, compositions containing such compounds and methods of use” (Merck Sharp & Dohme Corp., priority 2010, dated 2014)

Molecular target: Recombinant human glucagon receptor-expressing CHO cells (Homo sapiens (Human), UniProt P47871)
Assay: Inhibition of Glucagon-Stimulated Intracellular cAMP Assay
Type: cell-based
Details: stimulation with 300 pM glucagon; LANCE cAMP Kit
Description: Inhibition of Glucagon-Stimulated Intracellular cAMP Assay
Recombinant human glucagon receptor-expressing CHO cells were harvested using a non-enzymatic cell dissociation solution (GIBCO 2672), pelleted and resuspended in stimulation buffer (1×HBSS, 5 mM Hepes, 0.1% BSA, pH7.4 in the presence of proteinase inhibitor and phosphodiesterase inhibitors). The adenylate cyclase assay was constructed following the LANCE cAMP Kit (Perkin Elmer, AD0264) instructions. Briefly, cells were preincubated with anti-cAMP antibody and 12 points series diluted compound in stimulation buffer with a final concentration of 3% DMSO for 30 minutes prior to stimulation with 300 pM glucagon for 45 minutes. The reaction was stopped by incubating with the supplied detection buffer containing Europium chelate of the Eu-SA/Biotin-cAMP tracer for 20 hours. The assay was done as triplicates in a 384 well plate. Fluorescence at 665 nm was measured using PheraStar instruments. Basal activity (100% inhibition) was determined using the DMSO control and 0% inhibition was defined as cAMP stimulation produced by 300 pM glucagon. Standard cAMP concentrations were assayed concurrently for conversion of fluorescence signal to cAMP level. Data was analyzed using the software program Prism from GraphPad. IC50 values were calculated using non-linear regression analysis assuming single site competition.

Chain of Recombinant human glucagon receptor-expressing CHO cells (P47871 26-477): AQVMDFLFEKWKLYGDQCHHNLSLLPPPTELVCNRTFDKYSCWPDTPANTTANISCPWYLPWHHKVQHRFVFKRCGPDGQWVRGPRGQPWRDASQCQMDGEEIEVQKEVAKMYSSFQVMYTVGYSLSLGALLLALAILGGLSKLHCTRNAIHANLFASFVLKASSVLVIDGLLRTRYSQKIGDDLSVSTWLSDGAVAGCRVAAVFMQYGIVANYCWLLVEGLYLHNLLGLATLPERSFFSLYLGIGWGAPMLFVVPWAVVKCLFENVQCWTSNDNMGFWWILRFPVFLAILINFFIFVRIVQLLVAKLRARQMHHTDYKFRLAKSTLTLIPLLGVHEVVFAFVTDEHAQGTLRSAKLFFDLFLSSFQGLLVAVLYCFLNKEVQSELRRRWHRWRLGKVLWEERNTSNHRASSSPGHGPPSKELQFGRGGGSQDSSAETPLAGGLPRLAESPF

## CC(C)(C)CC[C@H](c1ccc(C(=O)NCCC(=O)O)cc1)N1C(=O)C(c2cc(Cl)cc(Cl)c2)=NC1(C)C [Example 1]
  IC50: 0.8 µM

## CC(C)(C)CC[C@H](c1ccc(C(=O)NCc2nn[nH]n2)cc1)N1C(=O)C(c2cc(Cl)cc(Cl)c2)=NC1(C)C [Example 2]
  IC50: 3.7 µM

## CC(C)(C)CC[C@H](c1ccc(C(=O)Nc2nn[nH]n2)cc1)N1C(=O)C(c2cc(Cl)cc(Cl)c2)=NC1(C)C [Example 3]
  IC50: 6.2 µM

## CC(C)CC1(C)N=C(c2cc(Cl)cc(Cl)c2)C(=O)N1[C@H](CCC(C)(C)C)c1ccc(C(=O)NCc2nn[nH]n2)cc1 (some centres unmarked) [Example 4]
  IC50: 1.1 µM

## CC(C)CC1(C)N=C(c2cc(Cl)cc(Cl)c2)C(=O)N1[C@H](CCC(C)(C)C)c1ccc(C(=O)Nc2nn[nH]n2)cc1 (some centres unmarked) [Example 5]
  IC50: 5.1 µM

## CC(C)CC1(C)N=C(c2cccc(F)c2)C(=O)N1[C@H](CCC(C)(C)C)c1ccc(C(=O)NCc2nn[nH]n2)cc1 (some centres unmarked) [Example 6]
  IC50: 3.4 µM

## CC(C)CC1(C)N=C(c2cc(Cl)cc(Cl)c2)C(=O)N1[C@H](CCC(C)(C)C)c1ccc(C(=O)NCCC(=O)O)cc1 (some centres unmarked) [Example 7]
  IC50: 0.6 µM

## CC(C)(C)CC[C@H](c1ccc(C(=O)NCCC(=O)O)cc1)N1C(=O)C(c2cccc(F)c2)=NC1(C)C [Example 8]
  IC50: 4.9 µM

## CC(C)(C)CC[C@H](c1ccc(C(=O)Nc2nn[nH]n2)cc1)N1C(=O)C(c2cccc(F)c2)=NC1(C)C [Example 9]
  IC50: 5.9 µM

## CC(C)(C)CC[C@H](c1ccc(C(=O)NCc2nn[nH]n2)cc1)N1C(=O)C(c2cccc(F)c2)=NC1(C)C [Example 10]
  IC50: 8.4 µM

## CC1(C2CCCCC2)N=C(c2cc(Cl)cc(Cl)c2)C(=O)N1CCc1ccc(C(=O)NCCC(=O)O)cc1 (centres unmarked) [Example 11]
  IC50: 1.7 µM

## CC1(C)N=C(c2cc(Cl)cc(Cl)c2)C(=O)N1CCc1ccc(C(=O)NCCC(=O)O)cc1 [Example 12]
  IC50: 1.7 µM

## CC(C)CC1(C)N=C(c2cc(Cl)cc(Cl)c2)C(=O)N1CCc1ccc(C(=O)NCCC(=O)O)cc1 (centres unmarked) [Example 13]
  IC50: 4.2 µM

## CC1(C2CCCCC2)N=C(c2ccc(OC(F)(F)F)cc2)C(=O)N1CCc1ccc(C(=O)NCCC(=O)O)cc1 (centres unmarked) [Example 14]
  IC50: 5.1 µM

## CC1(C2CCCCC2)NC(c2cccc(C(F)(F)F)c2)C(=O)N1CCc1ccc(C(=O)NCCC(=O)O)cc1 (centres unmarked) [Example 15]
  IC50: 3.5 µM

## CC1(C)N=C(c2ccc(OC(F)(F)F)cc2)C(=O)N1CCc1ccc(C(=O)NCCC(=O)O)cc1 [Example 16]
  IC50: 8.3 µM

## CC1(C)N=C(c2cc(Cl)cc(Cl)c2)C(=O)N1[C@@H](c1ccc(C(=O)NCCC(=O)O)cc1)C1CC1 [Example 17]
  IC50: 1.7 µM

## CCCC[C@H](c1ccc(C(=O)NCCC(=O)O)cc1)N1C(=O)C(c2ccc(-c3cc(Cl)cc(Cl)c3)cc2)=NC1(C)C [Example 18]
  IC50: 1 µM

## CC(C)[C@H](c1ccc(C(=O)NCCC(=O)O)cc1)N1C(=O)C(c2cc(Cl)cc(Cl)c2)=NC1(C)C [Example 19]
  IC50: 1.3 µM

## CCCC[C@H](c1ccc(C(=O)NCCC(=O)O)cc1)N1C(=O)C(c2cc(Cl)cc(Cl)c2)=NC1(C)C [Example 20]
  IC50: 2 µM
